Data: ChEMBL document CHEMBL1153627, “Optimization of piperidin-4-yl-urea-containing melanin-concentrating hormone receptor 1 (MCH-R1) antagonists: Reducing hERG-associated liabilities” (Bioorg Med Chem Lett, 2009)

Test: Clearance in rat
Assay type: ADME, organism-based
Conditions: in vivo

clearance: 154 mL/min/kg
Compound: O=C(NC1CCN(Cc2ccn(-c3ccc(C(F)(F)F)cc3)c2)CC1)N[C@H](CO)c1ccccc1
